# Test results taken from ChEMBL document CHEMBL1138486, “Sequence-derived three-dimensional pharmacophore models for G-protein-coupled receptors and their application in virtual screening” (J Med Chem, 2009).
# Biological target: T1, Complement component 3a receptor 1, isoform CRA_a (Homo sapiens, UniProt A8K2H7)
# T1 sequence (A8K2H7 whole entry): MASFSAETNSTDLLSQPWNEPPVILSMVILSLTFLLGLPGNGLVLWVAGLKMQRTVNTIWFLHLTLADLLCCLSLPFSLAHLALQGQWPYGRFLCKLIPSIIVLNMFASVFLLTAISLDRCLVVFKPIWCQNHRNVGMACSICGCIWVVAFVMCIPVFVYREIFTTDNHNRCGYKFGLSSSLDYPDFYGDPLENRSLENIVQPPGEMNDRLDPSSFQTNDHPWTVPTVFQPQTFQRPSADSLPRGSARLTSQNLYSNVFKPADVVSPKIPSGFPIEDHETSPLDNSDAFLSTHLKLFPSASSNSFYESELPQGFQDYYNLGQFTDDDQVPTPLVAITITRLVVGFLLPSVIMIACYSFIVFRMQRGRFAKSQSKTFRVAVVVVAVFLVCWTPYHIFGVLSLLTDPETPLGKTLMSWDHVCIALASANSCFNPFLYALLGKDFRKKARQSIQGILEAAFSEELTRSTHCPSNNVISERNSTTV
# Test: Agonist activity at human C3AR1 expressed in […] by FLIPR assay
# Type: functional, cell-based
row,EC50,Compound
1,310 nM,CCCCc1nc2cccc(CCCl)c2n1Cc1ccc(-c2ccccc2C(=O)O)cc1
2,2 nM,CCCc1nc(Br)c(S(C)(=O)=O)n1Cc1ccc(-c2ccccc2-c2nn[nH]n2)cc1
3,530 nM,CCCCc1cn(Cc2ccc(-c3ccccc3C(=O)O)cc2)c2cccc(SC)c2c1=O
4,2.7 nM,CCCCn1c(Cc2ccccc2)nc2cc(/C(=C/C(=O)O)c3ccccc3)ccc21
